Assays:
[1] = test system: cellular immune response (DTH reaction) to sheep erythrocytes; assay: Delayed type hypersensitivity (DTH) foot swelling reaction to sheep erythrocytes; format: in vivo, female NMRI mice; details: mice, i.p. and p.o.
Procedure: Effect On The Cellular Immunological Reaction, of the Delayed Type, to Sheep Erythrocytes (Delayed Type Hypersensitivity, DTH)
Either 10^6 or 10^9 red blood cells from sheep were administered intravenously to each animal in groups of 5 female NMRI mice weighing 18-20 g. Sheep erythrocytes are regarded in immunology as a standard test substance (antigen) for the induction of cellular and humoral immune reactions. In particular, this test provides information about the functioning of the T-cell-dependent component (T-helper cells) of the immune system. The test substance obtained as in exemplary embodiment 7 ([2-(3-carboxy-1-propylthio)-4 -methyl-1,3-thiazol-5-yl]acetic acid) was administered intraperitoneally and perorally, respectively, in the concentrations 10-100 mg/kg in physiological saline solution on days -3, -2, -1 and 0.After 5 days, each animal received 2×10^8 sheep erythrocytes injected into the underside of the foot and, 24 hours later, the swelling of the foot was measured. The foot swelling is induced by a skin reaction of the delayed type (delayed type hypersensitivity, DTH) and is, as is known to the expert, a measure of the cellular immune response (Collins, F. M. and Mackaness, G. B., J. Immunol. 101, 830-845, 1968). […]

[2] = test system: mouse peritoneal macrophages; assay: Release of lysosomal hydrolase enzymes from peritoneal macrophages of treated mice; format: in vivo, NMRI mice; details: for N-Ac-Glu % release: N-acetyl-β-D-glucosaminidase; for β-Gal % release: β-galactosidase; for β-Glu % release: β-glucuronidase
Procedure: (§1) This entailed investigation of the effect of the test substance obtained as in exemplary embodiment 7 on the stimulation of peritoneal macrophages in 6-8 week old NMRI mice. Female mice received the test substance in parenteral or oral doses of 25 mg/kg, 50 mg/kg, 100 mg/kg and 200 mg/kg. Buffered saline solution was administered to a control group. The mice were sacrificed three days after the injections, and the peritoneal macrophages of the animals were examined for their state of activation. The secretion of the lysosomal enzymes (β-galactosidase, β-glucuronidase and N-acetyl-β-D-glucosaminidase) was determined as one measure of macrophage activation. […] The level of oxidative metabolism in macrophages is taken as another measure of their state of activation. This activity is measured with the assistance of a biolumate by determination of the chemiluminescence.
(§2) For this purpose, either 3×10^6 macrophages were cultured with 1 ml of TC 199 culture medium in Petri dishes of diameter 30 mm or 10^6 macrophages were cultured with 100 μl of medium in round-bottomed polyethylene tubes (for determination of the chemiluminescence), with 5% CO2 and at 37° C.
(§3) After incubation for one hour, the cultures were washed to remove floating cells. The chemiluminescence (tube culture) was then determined directly, whereas the Petri dishes were incubated for a further 24 hours at 37° C. and then the enzyme and pinocytosis activities in the cultures were determined.
It can be seen from Table 3 that macrophages from control mice release only small amounts of lysosomal enzymes (β-glucuronidase, β-galactosidase and N-acetyl-β-D-glucosaminidase) into the culture supernatant. […] It is evident that the test substance has a stimulant action on macrophage activity and contributes to an increase in enzyme release.

[3] = test system: mouse peritoneal macrophages; assay: Pinocytosis of colloidal gold (198Au) by peritoneal macrophages of treated mice; format: in vivo, NMRI mice
Procedure: as §1, §2, §3
The quantitative determination of the pinocytosis activity of mononuclear phagocytes was carried out by the method of Davies et al. (Davies, P., Allison, A. C. and Haswell, A. D.; Biochem. Biophys. Res. Com. 52, 627, 1973). Radioactive colloidal gold (^198 Au) with a particle size of 20 nm and a specific activity of 4-12 mCi/mg of Au was used for this. The results in Table 4 illustrate the effect of the test substance obtained as in Example 7 on the efficiency of endocytosis.

[4] = test system: macrophages; assay: Stimulation of macrophage activity (chemiluminescence), relative to the compound from Example 7; format: in vivo, NMRI mice; details: 100 mg/kg, 1 × i.p. day 0; relative to Example 7 = 100%
Procedure: as §1, §2, §3
(§4) NMRI mice were treated with the compounds according to the invention as described in experiment 2.
(§5) The macrophage function (chemiluminescence and enzyme activity) was checked as a test to determine the immunostimulation.
(§6) It can be seen from the table that in comparison with macrophages from untreated animals, the chemiluminescence reaction of these cells was also greatly stimulated by all the test substances, and their content of lysosomal enzymes was markedly raised.

[5] = test system: macrophages; assay: Stimulation of macrophage activity (exocytosis / lysosomal enzyme activity), relative to the compound from Example 7; format: in vivo, NMRI mice; details: 100 mg/kg, 1 × i.p. day 0; relative to Example 7 = 100%
Procedure: as §1, §2, §3, §4, §5, §6

## Cc1nc(SCCCC(=O)O)sc1CC(=O)O [Example 7, [2-(3-Carboxy-1-propylthio)-4-methyl-1,3-thiazol-5-yl]acetic acid]
[1]
  dose for optimum stimulation of the cellular immune response: 20 to 40 mg/kg
[2]; 25 mg/kg, 1 × i.p.
  N-Ac-Glu % release: 17.2%
  β-Gal % release: 24.1%
  β-Glu % release: 20.0%
[2]; 25 mg/kg, 1 × p.o.
  N-Ac-Glu % release: 15.4%
  β-Gal % release: 20.4%
  β-Glu % release: 17.5%
[2]; 50 mg/kg, 1 × i.p.
  N-Ac-Glu % release: 26.0%
  β-Gal % release: 33.5%
  β-Glu % release: 30.9%
[2]; 50 mg/kg, 1 × p.o.
  N-Ac-Glu % release: 22.8%
  β-Gal % release: 26.9%
  β-Glu % release: 25.1%
[2]; 100 mg/kg, 1 × i.p.
  N-Ac-Glu % release: 40.8%
  β-Gal % release: 52.9%
  β-Glu % release: 42.8%
[2]; 100 mg/kg, 1 × p.o.
  N-Ac-Glu % release: 37.3%
  β-Gal % release: 43.6%
  β-Glu % release: 38.2%
[2]; 200 mg/kg, 1 × i.p.
  N-Ac-Glu % release: 51.5%
  β-Gal % release: 65.4%
  β-Glu % release: 58.2%
[2]; 200 mg/kg, 1 × p.o.
  N-Ac-Glu % release: 45.2%
  β-Gal % release: 54.8%
  β-Glu % release: 49.8%
[3]; 25 mg/kg, 1 × intraperitoneal
  efficiency of pinocytosis of mouse macrophages: 0.415 × 10^3 cpm
[3]; 25 mg/kg, 1 × oral
  efficiency of pinocytosis of mouse macrophages: 0.365 × 10^3 cpm
[3]; 50 mg/kg, 1 × intraperitoneal
  efficiency of pinocytosis of mouse macrophages: 0.558 × 10^3 cpm
[3]; 50 mg/kg, 1 × oral
  efficiency of pinocytosis of mouse macrophages: 0.448 × 10^3 cpm
[3]; 100 mg/kg, 1 × intraperitoneal
  efficiency of pinocytosis of mouse macrophages: 0.718 × 10^3 cpm
[3]; 100 mg/kg, 1 × oral
  efficiency of pinocytosis of mouse macrophages: 0.661 × 10^3 cpm
[3]; 200 mg/kg, 1 × intraperitoneal
  efficiency of pinocytosis of mouse macrophages: 0.862 × 10^3 cpm
[3]; 200 mg/kg, 1 × oral
  efficiency of pinocytosis of mouse macrophages: 0.739 × 10^3 cpm
[4]
  Macrophage activity: Chemiluminescence, relative activity: 100%
[5]
  Macrophage activity: Exocytosis, relative activity: 100%

Reference: US4762848A, “1,3-thiazoles and their use as immunomodulators” (Hoechst Aktiengesellschaft, priority 1985, dated 1988)
